Data as given in US9421209B2, “Kinase modulators” (Rhizen Pharmaceuticals SA, priority 2009, dated 2016).
Like-named read-outs stand apart in the source and are kept apart here.

How the values were obtained:
P110 δ/Pi3K δ = P110 δ/Pi3K δ (Homo sapiens, UniProt O00329); test: Fluorescent (HTRF) determination of PI3K enzyme activity, δ isoform; assay type: biochemical; set-up: inhibition: dose or concentration left out as unconfirmed
Procedure, shortened: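 HTRF kit detecting PIP3 formed from PIP2 by human PI3Kδ, at room temperature. Reaction started with 400 μM ATP (addition concentration) for 30 min, then stopped, and detection mix incubated 6–18 h in the dark. Percent inhibition taken against blank and enzyme controls, and IC50 fitted.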

P110α = P110α (Homo sapiens, UniProt P42336); test: Fluorescent (HTRF) determination of PI3K enzyme activity, α isoform; assay type: biochemical
Excerpt: (§1) Assay 1: Fluorescent determination of PI3Kinase Kinase enzyme activity
(§2) Phosphoinositide 3 kinases (PI3K) belong to a class of lipid kinases that play a critical role in the regulation of several key cellular processes. The PI3K are capable of phosphorylating the 3-hydroxy position of phosphoinositols thereby generating second messengers involved in downstream signalling events. The homogenous time resolved fluorescence (HTRF) assay allows detection of 3,4,5-triphosphate (PIP3) formed as a result of phosphorylation of phosphotidylinositol 4,5-biphosphate (PIP2) by PI3K isoforms such as α, β, γ or δ.
(§3) PI3K isoform activity for α, β, γ or δ was determined using a PI3K human HTRF™ Assay Kit (Millipore, Billerica, Mass.) with modifications. All incubations were carried out at room temperature. Briefly, 0.5 μl of 40× inhibitor (in 100% DMSO) or 100% DMSO were added to each well of a 384-well black plate (Greiner Bio-One, Monroe, N.C.) containing 14.5 μl 1× reaction buffer/PIP2 (10 mM MgCl2, 5 mM DTT, 1.38 μM PIP2) mix with or without enzyme and incubated for 10 min. After the initial incubation, 5 μl/well of 400 μM ATP was added and incubated for an additional 30 minutes. Reaction was terminated by adding 5 μl/well stop solution (Millipore, Billerica, Mass.). Five microliters of detection mix (Millipore, Billerica, Mass.) were then added to each well and was incubated for 6-18 h in the dark. HRTF ratio was measured on a microplate reader (BMG Labtech., Germany) at an excitation wavelength of 337 nm and emission wavelengths of 665 and 620 nm with an integration time of […]. Data were analyzed using Graphpad Prism (Graphpad software; San Diego Calif.) for IC50 determination. Percent inhibition was calculated based on the values for the blank and enzyme controls. The results are provided below in Table 2 & 3.

P110β = P110β (Homo sapiens, UniProt P42338); test: Fluorescent (HTRF) determination of PI3K enzyme activity, β isoform; assay type: biochemical
Procedure, shortened: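 Recombinant human PI3K isoforms incubated 10 min at room temperature with inhibitor and 1.38 μM PIP2 (10 mM MgCl2, 5 mM DTT), then 30 min after adding 400 μM ATP stock. PIP3 formation detected by HTRF (665/620 nm); % inhibition versus blank and enzyme controls gives IC50.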

P110γ = P110γ (Homo sapiens, UniProt P48736); test: Fluorescent (HTRF) determination of PI3K enzyme activity, γ isoform; assay type: biochemical
Excerpt: as §1, §2, §3

[1] = read-out: P110 δ/ Pi3K δ IC 50 nM
[2] = read-out: P110 δ/Pi3K δ IC 50 nM

Sequence of P110γ (P48736 whole entry, canonical isoform): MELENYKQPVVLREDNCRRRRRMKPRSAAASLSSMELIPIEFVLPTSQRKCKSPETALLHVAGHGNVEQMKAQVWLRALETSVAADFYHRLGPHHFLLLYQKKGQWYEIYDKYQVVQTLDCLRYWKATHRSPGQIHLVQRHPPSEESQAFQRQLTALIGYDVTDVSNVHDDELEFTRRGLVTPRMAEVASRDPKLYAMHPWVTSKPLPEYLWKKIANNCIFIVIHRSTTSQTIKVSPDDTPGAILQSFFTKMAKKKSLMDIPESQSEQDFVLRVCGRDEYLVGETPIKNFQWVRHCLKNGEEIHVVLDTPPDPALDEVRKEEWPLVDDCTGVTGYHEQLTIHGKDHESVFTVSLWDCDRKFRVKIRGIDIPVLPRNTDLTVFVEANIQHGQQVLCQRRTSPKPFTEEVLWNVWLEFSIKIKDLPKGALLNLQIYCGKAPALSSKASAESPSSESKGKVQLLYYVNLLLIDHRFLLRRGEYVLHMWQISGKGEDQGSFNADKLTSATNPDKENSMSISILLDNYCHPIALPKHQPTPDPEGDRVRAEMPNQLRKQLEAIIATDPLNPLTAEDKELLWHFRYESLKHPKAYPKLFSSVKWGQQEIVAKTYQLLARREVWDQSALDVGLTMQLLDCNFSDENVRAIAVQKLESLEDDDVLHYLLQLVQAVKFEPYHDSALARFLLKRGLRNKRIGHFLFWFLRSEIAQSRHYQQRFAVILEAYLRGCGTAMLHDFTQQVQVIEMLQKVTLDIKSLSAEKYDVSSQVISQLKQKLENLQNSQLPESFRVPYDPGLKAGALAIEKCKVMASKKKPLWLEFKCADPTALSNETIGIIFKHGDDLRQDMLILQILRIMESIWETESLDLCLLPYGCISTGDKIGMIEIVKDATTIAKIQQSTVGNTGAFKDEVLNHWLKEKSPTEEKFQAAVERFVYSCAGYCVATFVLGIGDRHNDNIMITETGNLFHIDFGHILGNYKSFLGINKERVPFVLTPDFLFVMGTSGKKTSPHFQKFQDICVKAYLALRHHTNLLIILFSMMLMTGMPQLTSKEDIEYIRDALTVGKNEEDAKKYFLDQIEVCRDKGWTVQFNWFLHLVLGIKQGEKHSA
Sequence of P110 δ/Pi3K δ (O00329 whole entry, canonical isoform): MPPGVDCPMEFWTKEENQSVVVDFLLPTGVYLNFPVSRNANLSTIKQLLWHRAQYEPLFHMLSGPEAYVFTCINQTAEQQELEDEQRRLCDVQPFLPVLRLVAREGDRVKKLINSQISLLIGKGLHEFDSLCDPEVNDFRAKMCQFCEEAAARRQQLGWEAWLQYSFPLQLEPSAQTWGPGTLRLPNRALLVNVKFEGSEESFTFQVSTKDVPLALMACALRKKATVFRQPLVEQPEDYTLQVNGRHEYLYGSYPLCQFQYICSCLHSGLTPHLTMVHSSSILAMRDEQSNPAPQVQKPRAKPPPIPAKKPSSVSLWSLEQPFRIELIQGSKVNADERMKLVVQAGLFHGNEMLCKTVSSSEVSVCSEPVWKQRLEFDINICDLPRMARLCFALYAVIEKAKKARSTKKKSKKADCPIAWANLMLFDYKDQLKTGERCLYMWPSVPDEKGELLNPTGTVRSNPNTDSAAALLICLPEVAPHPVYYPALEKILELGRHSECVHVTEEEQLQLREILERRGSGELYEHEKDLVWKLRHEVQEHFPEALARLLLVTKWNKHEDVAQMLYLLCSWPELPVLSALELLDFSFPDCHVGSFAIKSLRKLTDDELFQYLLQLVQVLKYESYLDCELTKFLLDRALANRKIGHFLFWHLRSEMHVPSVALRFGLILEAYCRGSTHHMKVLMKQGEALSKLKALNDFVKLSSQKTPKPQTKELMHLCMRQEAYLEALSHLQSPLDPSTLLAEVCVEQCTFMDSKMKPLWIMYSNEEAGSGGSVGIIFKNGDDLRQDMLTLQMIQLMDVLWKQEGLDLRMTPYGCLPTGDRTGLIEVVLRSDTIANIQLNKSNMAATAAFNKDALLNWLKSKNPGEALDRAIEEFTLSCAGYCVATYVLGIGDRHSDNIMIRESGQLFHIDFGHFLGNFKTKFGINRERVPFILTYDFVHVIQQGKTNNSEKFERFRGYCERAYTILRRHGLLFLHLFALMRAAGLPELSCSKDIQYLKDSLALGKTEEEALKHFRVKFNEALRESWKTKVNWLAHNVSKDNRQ
Sequence of P110 δ/Pi3K δ (P27986 whole entry partner, canonical isoform): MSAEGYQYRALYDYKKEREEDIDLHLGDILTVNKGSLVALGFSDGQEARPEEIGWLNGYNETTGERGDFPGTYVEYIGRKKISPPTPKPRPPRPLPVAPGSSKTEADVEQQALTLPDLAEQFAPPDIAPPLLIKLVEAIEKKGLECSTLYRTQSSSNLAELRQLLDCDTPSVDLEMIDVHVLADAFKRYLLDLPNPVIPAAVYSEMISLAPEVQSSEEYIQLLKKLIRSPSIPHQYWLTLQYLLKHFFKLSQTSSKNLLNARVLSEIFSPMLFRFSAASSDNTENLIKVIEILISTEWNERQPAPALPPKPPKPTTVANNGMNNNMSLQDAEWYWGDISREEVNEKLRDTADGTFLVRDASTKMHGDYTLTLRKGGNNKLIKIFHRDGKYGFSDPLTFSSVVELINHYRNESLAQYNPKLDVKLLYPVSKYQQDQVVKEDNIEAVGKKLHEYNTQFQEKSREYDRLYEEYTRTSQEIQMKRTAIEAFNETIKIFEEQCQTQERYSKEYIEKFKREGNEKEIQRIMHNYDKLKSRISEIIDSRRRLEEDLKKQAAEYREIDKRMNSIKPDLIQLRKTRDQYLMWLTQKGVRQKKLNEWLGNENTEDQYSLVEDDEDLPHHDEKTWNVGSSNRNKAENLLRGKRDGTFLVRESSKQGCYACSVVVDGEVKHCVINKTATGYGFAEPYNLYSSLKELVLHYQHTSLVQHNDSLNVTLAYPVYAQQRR
Sequence of P110α (P42336 whole entry, canonical isoform): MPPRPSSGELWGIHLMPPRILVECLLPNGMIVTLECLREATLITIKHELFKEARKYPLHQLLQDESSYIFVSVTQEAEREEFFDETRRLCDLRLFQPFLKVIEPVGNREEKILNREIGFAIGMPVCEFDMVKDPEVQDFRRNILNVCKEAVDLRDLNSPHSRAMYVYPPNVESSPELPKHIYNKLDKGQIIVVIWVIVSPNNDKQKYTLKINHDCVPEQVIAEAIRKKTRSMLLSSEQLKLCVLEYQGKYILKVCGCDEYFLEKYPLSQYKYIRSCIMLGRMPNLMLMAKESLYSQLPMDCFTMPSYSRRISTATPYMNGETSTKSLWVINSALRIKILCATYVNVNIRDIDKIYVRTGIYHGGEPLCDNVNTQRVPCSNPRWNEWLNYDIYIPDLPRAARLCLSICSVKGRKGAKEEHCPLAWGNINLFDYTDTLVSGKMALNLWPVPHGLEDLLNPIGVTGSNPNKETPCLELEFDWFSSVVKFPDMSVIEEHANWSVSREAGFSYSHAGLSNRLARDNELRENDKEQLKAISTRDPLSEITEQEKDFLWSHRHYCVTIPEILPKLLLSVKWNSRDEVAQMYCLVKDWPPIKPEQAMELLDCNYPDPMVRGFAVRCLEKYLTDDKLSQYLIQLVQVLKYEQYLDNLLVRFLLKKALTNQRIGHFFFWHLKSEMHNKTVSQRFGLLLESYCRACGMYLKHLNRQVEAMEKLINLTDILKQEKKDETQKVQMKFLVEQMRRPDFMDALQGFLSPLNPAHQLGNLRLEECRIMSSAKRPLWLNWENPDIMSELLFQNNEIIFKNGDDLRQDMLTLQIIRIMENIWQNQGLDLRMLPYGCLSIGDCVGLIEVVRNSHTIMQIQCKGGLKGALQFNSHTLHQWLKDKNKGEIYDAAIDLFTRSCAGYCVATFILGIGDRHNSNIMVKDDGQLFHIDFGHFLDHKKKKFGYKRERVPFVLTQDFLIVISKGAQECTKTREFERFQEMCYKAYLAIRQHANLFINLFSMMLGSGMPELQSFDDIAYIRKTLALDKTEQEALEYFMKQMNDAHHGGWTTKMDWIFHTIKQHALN
Sequence of P110α (P27986 whole entry partner, canonical isoform): as the sequence (P27986 whole entry partner, canonical isoform) above
Sequence of P110β (P42338 whole entry, canonical isoform): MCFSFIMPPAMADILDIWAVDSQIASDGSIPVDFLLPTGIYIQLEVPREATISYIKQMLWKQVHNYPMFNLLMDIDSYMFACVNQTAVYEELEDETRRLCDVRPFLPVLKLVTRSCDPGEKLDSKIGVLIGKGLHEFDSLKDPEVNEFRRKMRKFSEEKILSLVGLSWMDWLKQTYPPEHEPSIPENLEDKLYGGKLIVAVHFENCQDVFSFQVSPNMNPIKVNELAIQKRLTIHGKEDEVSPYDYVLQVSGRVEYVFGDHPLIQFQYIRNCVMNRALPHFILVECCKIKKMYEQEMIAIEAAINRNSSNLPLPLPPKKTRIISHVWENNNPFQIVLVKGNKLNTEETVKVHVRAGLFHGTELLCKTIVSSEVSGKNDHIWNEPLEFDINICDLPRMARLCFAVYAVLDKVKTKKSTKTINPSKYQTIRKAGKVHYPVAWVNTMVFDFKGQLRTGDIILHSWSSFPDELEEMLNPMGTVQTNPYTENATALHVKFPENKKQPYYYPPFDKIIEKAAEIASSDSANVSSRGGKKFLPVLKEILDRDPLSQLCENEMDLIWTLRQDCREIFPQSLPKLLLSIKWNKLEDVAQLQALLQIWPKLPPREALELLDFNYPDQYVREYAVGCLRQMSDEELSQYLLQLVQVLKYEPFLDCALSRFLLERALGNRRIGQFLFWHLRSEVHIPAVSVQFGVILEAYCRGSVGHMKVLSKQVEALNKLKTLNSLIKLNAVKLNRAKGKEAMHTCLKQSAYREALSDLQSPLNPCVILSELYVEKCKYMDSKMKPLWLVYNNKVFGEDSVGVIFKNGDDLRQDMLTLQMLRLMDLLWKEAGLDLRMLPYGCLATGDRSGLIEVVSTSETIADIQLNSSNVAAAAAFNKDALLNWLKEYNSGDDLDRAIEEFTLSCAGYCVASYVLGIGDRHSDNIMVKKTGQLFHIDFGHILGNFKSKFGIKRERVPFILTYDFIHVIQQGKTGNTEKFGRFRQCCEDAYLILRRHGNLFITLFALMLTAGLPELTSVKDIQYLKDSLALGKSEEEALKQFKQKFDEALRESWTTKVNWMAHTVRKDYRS
Sequence of P110β (P27986 whole entry partner, canonical isoform): as the sequence (P27986 whole entry partner, canonical isoform) above

IC50 (P110 δ/Pi3K δ; [1]) [nM]	inhibition at 1 µM (P110α) [%]	inhibition at 1 µM (P110β) [%]	inhibition at 1 µM (P110γ) [%]	inhibition at 1 µM (P110 δ/Pi3K δ) [%]	IC50 (P110 δ/Pi3K δ; [2]) [nM]	melting point [°C]	inhibition (P110 δ/Pi3K δ) [%]	Structure (SMILES)
–	< 25	< 25	< 25	50 to 100	< 250	–	–	CC(c1oc2ccccc2c(=O)c1-c1cccc(F)c1)n1cnc2c(N)ncnc21 (centres unmarked) [Example 32, 2-(1-(6-Amino-9H-purin-9-yl)ethyl)-3-(3-fluorophenyl)-4H-chromen-4-one]
–	< 25	25 to 50	25 to 50	50 to 100	< 250	135 to 138	–	C[C@H](Nc1ncnc2[nH]cnc12)c1oc2ccccc2c(=O)c1-c1cccc(F)c1 [Example 47, (S)-2-(1-(9H-purin-6-ylamino)ethyl)-3-(3-fluorophenyl)-4H-chromen-4-one]
–	< 25	50 to 100	< 25	–	–	–	–	COc1cccc(-c2nn(C(C)c3oc4ccccc4c(=O)c3-c3cccc(F)c3)c3ncnc(N)c23)c1 (centres unmarked) [Example 51, 2-(1-(4-amino-3-(3-methoxyphenyl)-1H-pyrazolo[3,4-d]pyrimidin-1-yl)ethyl)-3-(3-fluorophenyl)-4H-chromen-4-one]
< 250	< 25	25 to 50	25 to 50	–	–	214 to 217	50 to 100	Cc1n[nH]c2cc(-c3nn(C(C)c4oc5ccccc5c(=O)c4-c4cccc(F)c4)c4ncnc(N)c34)ccc12 (centres unmarked) [Example 79, 2-(1-(4-amino-3-(3-methyl-1H-indazol-6-yl)-1H-pyrazolo[3,4-d]pyrimidin-1-yl)ethyl)-3-(3-fluorophenyl)-4H-chromen-4-one]
–	< 25	< 25	25 to 50	–	–	238 to 241	50 to 100	CC(c1oc2ccccc2c(=O)c1-c1cccc(F)c1)n1nc(-c2ccc3c(c2)CCO3)c2c(N)ncnc21 (centres unmarked) [Example 109, 2-(1-(4-amino-3-(2,3-dihydrobenzofuran-5-yl)-1H-pyrazolo[3,4-d]pyrimidin-1-yl)ethyl)-3-(3-fluorophenyl)-4H-chromen-4-one]
–	< 25	< 25	50 to 100	–	–	269 to 272	50 to 100	Cc1c[nH]c2cc(-c3nn(C(C)c4oc5ccccc5c(=O)c4-c4cccc(F)c4)c4ncnc(N)c34)ccc12 (centres unmarked) [Example 111, 2-(1-(4-amino-3-(3-methyl-1H-indol-6-yl)-1H-pyrazolo[3,4-d]pyrimidin-1-yl)ethyl)-3-(3-fluorophenyl)-4H-chromen-4-one]
–	–	25 to 50	< 25	–	–	216 to 218	< 50	CCOc1ccc(-c2nn(C(C)c3oc4ccccc4c(=O)c3-c3cccc(F)c3)c3ncnc(N)c23)cc1F (centres unmarked) [Example 143, 2-(1-(4-amino-3-(4-ethoxy-3-fluorophenyl)-1H-pyrazolo[3,4-d]pyrimidin-1-yl)ethyl)-3-(3-fluorophenyl)-4H-chromen-4-one]

Second part, the molecule before the results:

Structure (SMILES)	IC50 (P110 δ/Pi3K δ; [1]) [nM]	inhibition at 1 µM (P110α) [%]	inhibition at 1 µM (P110β) [%]	inhibition at 1 µM (P110γ) [%]	inhibition at 1 µM (P110 δ/Pi3K δ) [%]	IC50 (P110 δ/Pi3K δ; [2]) [nM]	melting point [°C]	inhibition (P110 δ/Pi3K δ) [%]
Cc1n[nH]c2cc(-c3nn([C@H](C)c4oc5ccccc5c(=O)c4-c4cccc(F)c4)c4ncnc(N)c34)ccc12 (single isomer, unassigned) [Example 128, (+)-2-(1-(4-amino-3-(3-methyl-1H-indazol-6-yl)-1H-pyrazolo[3,4-d]pyrimidin-1-yl)ethyl)-3-(3-fluorophenyl)-4H-chromen-4-one]	< 250	< 25	< 25	25 to 50	–	–	–	–
CC(c1oc2ccccc2c(=O)c1-c1ccccc1)n1nc(-c2cccc(O)c2)c2c(N)ncnc21 (centres unmarked) [Example 42, 2-(1-(4-Amino-3-(3-hydroxyphenyl)-1H-pyrazolo[3,4-d]pyrimidin-1-yl)ethyl)-3-phenyl-4H-chromen-4-one]	–	< 25	25 to 50	< 25	50 to 100	< 250	212 to 216	–
Nc1ncnc2c1c(-c1cccc(O)c1)nn2Cc1oc2ccccc2c(=O)c1-c1ccccc1 [Example 53, 2-((4-Amino-3-(3-hydroxyphenyl)-1H-pyrazolo[3,4-d]pyrimidin-1-yl)methyl)-3-phenyl-4H-chromen-4-one]	–	< 25	50 to 100	< 25	50 to 100	< 250	154 to 158	–
Nc1ncnc2c1c(-c1cccc(O)c1)nn2Cc1oc2ccccc2c(=O)c1-c1cccc(F)c1 [Example 55, 2-((4-amino-3-(3-hydroxyphenyl)-1H-pyrazolo[3,4-d]pyrimidin-1-yl)methyl)-3-(3-fluorophenyl)-4H-chromen-4-one]	–	< 25	< 25	50 to 100	50 to 100	< 250	280 to 283	–
Nc1ncnc2c1c(-c1cc(O)cc(F)c1)nn2Cc1oc2ccccc2c(=O)c1-c1cccc(F)c1 [Example 68, 2-((4-amino-3-(3-fluoro-5-hydroxyphenyl)-1H-pyrazolo[3,4-d]pyrimidin-1-yl)methyl)-3-(3-fluorophenyl)-4H-chromen-4-one]	–	< 25	25 to 50	< 25	50 to 100	< 250	235 to 237	–
